Counter-ions that a name gives are not always drawn.
What was measured:
sodium-loaded SHR-SP rat [1] = test: survival study in sodium-loaded SHR-SP rat; assay type: in vivo; details: 30 mg/kg/day in food, 1% NaCl in drinking water, from 10 weeks of age; Carrier group 57 days
Protocol: (§1) 10-week old male SHR-SP rats (Charles River) being given 1% NaCl in their drinking water were separated into two groups in random manner and were treated, or not, with the sodium salt of the (R) isomer of the compound of formula (I) (30 mg/kg/day) incorporated in their food.
In a first study, the survival of each group was determined by calculating the percentage of animals alive each day after the start of treatment.
(§2) The results are reported as the mean±S.E.M. Differences are considered significant when P<0.05 after a Student's t test. The survival of the animals is represented on a Kaplan-Meier graph and the results are considered significant when P<0.05 after a log-rank test.

radial artery = test: peripheral vasomotor response, provoked hyperaemia test in atheromatous patients; assay type: in vivo; details: versus placebo, patients treated with aspirin; whatever the dose, single or repeated administration (15 days), about 2 hours after administration
Protocol: This superiority is observed whatever the dose, after single administration or repeated administration (15 days), the vasodilatory effect being evaluated about 2 hours after administration of the medicament.

carotid thrombosis = test: models of carotid thrombosis in vivo and ex vivo (occlusion time); details: carotid thrombosis: vascular electrolysis (dog), mechanical lesion (guinea pig), electric stimulation (rat), ex vivo carotid-carotid arterial bypass by glass capillary
atherosclerotic lesion = test: experimental models of anti-proliferative, anti-atheromatous and anti-inflammatory effects; assay type: in vivo
sodium-loaded SHR-SP rat [2] = test: 5-week study in sodium-loaded SHR-SP rat (cardiac hypertrophy, urinary 8-OH-dG, plasma thiostatin); assay type: in vivo; details: 30 mg/kg/day in food, 5 weeks, compared to Carrier group
Protocol: as §1
In a second study, the rats were monitored over 5 weeks, between 10 and 15 weeks of age, and were then sacrificed in order to quantify a urinary marker of oxidative stress (8-OH-dG) and a plasma marker reflecting acute inflammation (thiostatin, which in the rat is the equivalent of CRP) and in order to determine cardiac hypertrophy.
During the last 24 hours of monitoring, the animals were placed in individual metabolic cages and the urines were collected in sterile tubes (200 μl of 2 mM EDTA). Diuresis was measured and the production of 8-hydroxy-2′-deoxyguanosine (8-OH-dG) was quantified by ELISA assay (Oxis, Bioxytech).
The rats were anaesthetised by intraperitoneal injection of pentobarbital sodium (50 mg/kg, Ceva laboratories). Blood was sampled from the carotid artery (sampling into heparin 5000 IU/ml) in order to measure thiostatin production by ELISA assay (Life Diagnostics). The heart was excised, dried and weighed, and cardiac hypertrophy was determined by dividing the weight of the dry heart by the body weight for each animal in order to standardise the measurement.
as §2

thrombus = test: ex vivo anti-thrombotic activity, perfusion chamber model, in patients at high risk of ischaemic CVA
Text: In this study, the sodium salt of the (R) isomer of the compound of formula (I) also has an effect on the measured markers of inflammation (sVCAM, sPAI-1, sP-selectin, thrombomodulin).

[3] = after 10 days of administration, compared with aspirin

SMILES: Cc1ccc2c(c1CCC(=O)O)CCC(NS(=O)(=O)c1ccc(Cl)cc1)C2 [sodium salt of the (R) isomer of the compound of formula (I), 3-{6-[(4-chlorophenylsulphonyl)amino]-2-methyl-5,6,7,8-tetrahydro-naphth-1-yl}propionic acid]
- time after which half the rats were dead (survival) (sodium-loaded SHR-SP rat [1]): 99 days
- endothelium-dependent vasodilation (radial artery): superiority
- occlusion time (carotid thrombosis): lengthens the occlusion time in dose-dependent manner
- expression of adhesion molecules and markers such as endothelin, ICAM and VCAM (atherosclerotic lesion): inhibits
- infiltration of macrophages into the vascular wall (atherosclerotic lesion): inhibits
- intima/media ratio (atherosclerotic lesion): significantly reduces
- serum cholesterol (atherosclerotic lesion): without reducing
- surface area of the atherosclerotic lesion (atherosclerotic lesion): significantly reduces
- thickness of the vascular wall (atherosclerotic lesion): significantly reduces
- cardiac hypertrophy (dry heart weight / body weight) (sodium-loaded SHR-SP rat [2]): less marked
- plasma thiostatin (acute inflammation) (sodium-loaded SHR-SP rat [2]): lower
- total amount of 8-OH-dG in urines over 24 hours (oxidative stress) (sodium-loaded SHR-SP rat [2]): reduced
- % adhesion (thrombus; [3]): superiority
- dense surface area of the thrombus (thrombus; [3]): superiority
- total surface area of the thrombus (thrombus; [3]): superiority
- measured markers of inflammation (sVCAM, sPAI-1, sP-selectin, thrombomodulin) (thrombus; patients at high risk of ischaemic CVA): has an effect

Reference: patent US20070238785A1, “Use of an anti-atherothrombotic compound in obtaining medicaments intended for the treatment of vascular disorders” (priority 2006, published 2007)
